Data: patent US10900063B2, “Measurement of Lp-PLA2 activity” (ASAHI KASEI PHARMA CORPORATION, priority 2016, dated 2021)
Substitutions are numbered along the chain they refer to. Names may count otherwise.

Experiments:
Lp-PLA2 [1] = target: T1, Lp-PLA2 (Homo sapiens, UniProt Q13093); assay: Effects of coexisting substances, Lp-PLA2 FS; format: biochemical; conditions: for Lp-PLA2 activity value / ΔmAbs/min: coexisting substance added 1:9 to pooled serum J042; for measurement value as percentage of sample with added water (100%): pooled serum J042 plus coexisting substance vs J042 + water
T1 construct: Individual serum No. 16, individual serum No. 78; from tissue; host or cells: serum and plasma (individual sera, pooled sera, heparin and citrated pooled plasma)
T1 sequence (Q13093 22-441): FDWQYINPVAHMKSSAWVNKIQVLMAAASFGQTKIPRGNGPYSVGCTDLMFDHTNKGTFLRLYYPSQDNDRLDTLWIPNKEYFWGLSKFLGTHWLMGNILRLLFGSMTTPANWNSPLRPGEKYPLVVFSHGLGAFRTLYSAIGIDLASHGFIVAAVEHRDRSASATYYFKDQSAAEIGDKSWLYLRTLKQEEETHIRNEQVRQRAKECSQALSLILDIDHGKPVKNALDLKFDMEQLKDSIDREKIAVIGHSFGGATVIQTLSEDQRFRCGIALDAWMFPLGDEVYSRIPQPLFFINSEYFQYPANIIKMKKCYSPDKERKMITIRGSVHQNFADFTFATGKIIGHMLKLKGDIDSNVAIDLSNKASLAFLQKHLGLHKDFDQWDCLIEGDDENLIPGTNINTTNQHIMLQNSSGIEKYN
Text: (§1) The reagent compositions were the same as in Example 17.
(§2) The absorbance change values per minute (ΔmAbs/min) and activity values (nmol/min/mL and U/L) with each kind of reagent are shown in Tables 43 to 45. Given 100% as the measurement value of the sample with the added water, the measurement values for the other samples are shown as percentages.

Lp-PLA2 [2] = target: T1, Lp-PLA2; assay: Effects of coexisting substances, reagents of invention; format: biochemical; conditions: for measurement value as percentage of sample with added water: J042 + water = 100%, concentrations as printed in the sample names; for Lp-PLA2 activity value / absorbance change per minute: pooled serum J042 mixed 9:1 with: Bil-C 20 mg/dL, Bil-F 20 mg/dL, hemolytic Hb 500 mg/dL, chyle 1400 FTU, Intralipos 1%, ascorbic acid 50 mg/dL
Text: as §1, §2

Lp-PLA2 [3] = target: T1, Lp-PLA2; assay: Effects of coexisting substances, PLAC Test; format: biochemical; conditions: for Lp-PLA2 activity value / ΔmAbs/min: coexisting substance added 1:9 to pooled serum J042; for measurement value as percentage of sample with added water (100%): pooled serum J042 plus coexisting substance vs J042 + water
Text: as §1, §2

[4] = neutral pH; cited from earlier work
[5] = Specificity of recombinant lyso-PAF-PLD: PLD activity against PAF; format: biochemical; conditions: 0 to 0.5 mM PAF (C16); […] enzyme in R2
Experimental: (§3) To investigate the specificity of the recombinant lyso-PAF-PLD purified in Reference Example 3, activity against PAF(C16) and lyso-PAF(C16) was studied. The reagent compositions are as follows.
(§4) 5 μL samples containing PAF(C16) or lyso-PAF(C16) at concentrations of 0, 0.1, 0.2, 0.3, 0.4 or 0.5 mM were each incubated for 5 minutes at 37° C. with 15 μL of the R1 reagent (measuring points 1 to 15), after which 50 μL of the R2 reagent was added and reacted for 5 minutes (measuring points 16 to 31).

[6] = Specificity of recombinant lyso-PAF-PLD: PLD activity against lyso-PAF; format: biochemical; conditions: 0 to 0.5 mM lyso-PAF (C16); […] enzyme in R2
Experimental: as §3, §4

[7] = Thermal stability test of lyso-PAF-PLD (residual activity); format: physicochemical; conditions: incubated 60 minutes in 20 mM Tris-HCl (pH 7.5)
Experimental: The purified lyso-PAF-PLD was incubated for 60 minutes at different temperatures in a 20 mM Tris-HCl (pH 7.5) solution, and residual activity was investigated with the following reaction solution. C18(Plasm) LPC (Product No. 852465P, Avanti Polar Lipids, Inc.) was used as the substrate.
50 μL of the reaction solution was pre-incubated for 5 minutes at 37° C., 5 μL of the enzyme solution was added, and an enzyme reaction was performed for 1 minute at […]. 200 μL of the color developing solution was then added and reacted for 10 minutes at 37° C., after which absorbance was measured at 550 nm. The activity value was calculated according to the following formula.

[8] = PLD activity (kcat/Km) of lyso-PAF-PLD and site-specific mutants against lyso-PAF; format: biochemical; conditions: substrate lyso-PAF 0 to 5 mM, pH 7.5, 37° C.
Experimental: As a result, the pre-mutation PLD activity was 1385 (s^−1 mM^−1), but the mutant having G substituted for the M in the 45th position of SEQ ID NO: 9 (called M45G) and the similarly-named mutants M45A, M45L and M45D had PLD activities of 3059, 11411, 3284 and 4557 (s^−1mM^−1), respectively.
As a result, the PLD activity was 1385 (s^−1mM^−1) before the mutation, but the mutant having G substituted for F in the 257th position of […] (called F257G) and the similarly-named mutants F257E, F257R, F257K and F257W had PLD activities 1200, 1000, 1080, 1020 and 1320, respectively.
The PLD activity of the lyso-PAF-PLD mutants obtained by site-specific mutations was measured as follows. 1.211 g of Tris, 14.7 mg of calcium chloride dihydrate (Wako Pure Chemical Industries, Ltd.), 20 mL of lyso-PAF solution and 2 mL of 1% TODB solution were dissolved in 60 mL of purified water, the pH was adjusted to 7.5 (25° C.) with 1 N HCl, 4 mL of 100 U/mL choline oxidase, 4 mL of 100 U/mL peroxidase solution and 2 mL of 1% 4-AA solution were added and dissolved, and the total was brought to 100 mL with purified water to obtain a PLD activity measurement reagent for lyso-PAF (reaction reagent mixture). The lyso-PAF solution was adjusted so that the lyso-PAF concentration in the reaction reagent mixture was 0 to 5 mM. 3 mL of the reaction reagent mixture was pre-heated for 5 minutes at 37° C., and mixed with 50 μL of a solution of the lyso-PAF-PLD mutant with the introduced site-specific mutation diluted appropriately with 10 mM Tris-HCl (pH 7.5) to initiate a reaction, and the change in absorbance at 546 nm was measured for 1 minute between 8 and 9 minutes after initiation of the reaction. The activity value (μmole/min) was calculated given 36 (cm^2/μmole) as the millimolar extinction coefficient of the quinoneimine dye at 546 nm. The protein content (mg/mL) was calculated by the Bradford method using bovine serum albumin as the standard. Km and kcat were calculated by the Michaelis-Menten formula in accordance with the methods described in the aforementioned Theory and Practice on Enzymes and other Proteins [Tanpakushitsu/Kouso no kiso jikkenhou] and in Voet's Basic Biochemistry (Fourth Ed.) and the like. For purposes of calculation, the molecular weight of the enzyme was given as 33583.

In the case of `O=C1O[C@H]([C@@H](O)CO)C(O)=C1O` [ascorbic acid, L(+)-Ascorbic acid], the Lp-PLA2 activity value (Lp-PLA2 [1]) is reported as 343.5 U/L, the ΔmAbs/min (Lp-PLA2 [1]) is reported as 28.8 ΔmAbs/min and the “measurement value as percentage of sample with added water (100%)” value (“measurement value as percentage … (100%)” below) (Lp-PLA2 [1]) is reported as 100%. The “measurement value as percentage of sample with added water” value (Lp-PLA2 [2]) was 96%, the Lp-PLA2 activity value (Lp-PLA2 [2]) was 29.6 nmol/min/mL and the “absorbance change per minute” value (Lp-PLA2 [2]) was 20.9 ΔmAbs/min. The Lp-PLA2 activity value (Lp-PLA2 [3]) was 138.1 nmol/min/mL, the ΔmAbs/min (Lp-PLA2 [3]) was 181.0 ΔmAbs/min and the “measurement value as percentage … (100%)” value (Lp-PLA2 [3]) was 99%.

In the case of `CCCCCCCCCCCCCC(=O)OCC(COP(=O)([O-])OCC[N+](C)(C)C)OC(=O)CCC(=O)Oc1ccc([N+](=O)[O-])cc1` (stereo not shown) [1-myristoyl-2-(4-nitrophenylsuccinyl)phosphatidylcholine], the water solubility [4] is listed as “poor water solubility at neutral pH values”.

With `C=CC1=C(C)/C(=C/c2[nH]c(Cc3[nH]c(/C=C4\NC(=O)C(C)=C4C=C)c(C)c3CCC(=O)O)c(CCC(=O)O)c2C)NC1=O` [Bil-F] the Lp-PLA2 activity value (Lp-PLA2 [1]) was 351.0 U/L, the ΔmAbs/min (Lp-PLA2 [1]) was 29.4 ΔmAbs/min and the “measurement value as percentage … (100%)” value (Lp-PLA2 [1]) was 102%. The “measurement value as percentage of sample with added water” value (Lp-PLA2 [2]) was 101%, the Lp-PLA2 activity value (Lp-PLA2 [2]) was 31.3 nmol/min/mL and the “absorbance change per minute” value (Lp-PLA2 [2]) was 22.1 ΔmAbs/min. The Lp-PLA2 activity value (Lp-PLA2 [3]) was 145.5 nmol/min/mL, the ΔmAbs/min (Lp-PLA2 [3]) was 188.4 ΔmAbs/min and the “measurement value as percentage … (100%)” value (Lp-PLA2 [3]) was 105%.

B1: lyso-PAF-PLD: recombinant enzyme from Thermocrispum sp. NITE BP-01628, SEQ ID NO: 9, PLD activity against lyso-PAF but not PAF (protein)
chain: MTTRTTDNPWLDARVLNMAHAGGENEAPANTLYAFKRAVKLGANMLELDVQSTKDDQLVVIHNATVDQTTDGTGKVRDLTFEQVHELDAAYNFIPGRHAVPGEPPESYPLRGVRTGEKKPPPGYQPSDFAIPKLADVLEAFPRTPINIEIKGTSDADIPSFLHNAKLLARLLKKTGRTDFIVTSFNDLAVAKFHLLAPDIPIAPGMAGLAAYFLLGVKPMHGTVALQIPVRYQGLEIATPEFIRRAHADGYAVHVWFSGTAPDDEATYNRIIDSCADGLMPAYPALLERILDERGIERPGRPGVDPCG
In the case of B1, the “PLD activity against PAF” value [5] is reported as “not against PAF”, the “PLD activity against lyso-PAF” value [6] is reported as “exhibits PLD activity only against lyso-PAF” and the “thermal stability (residual activity)” value [7] is reported as “not inactivated by storage at 20 to 60 °C”.

B2: M45D: lyso-PAF-PLD mutant, D substituted for M in the 45th position of SEQ ID NO: 9 (protein)
chain: B1 chain with M45D
With B2 the Km [8] was 34 µM and the kcat [8] was 157 s⁻¹.

B3: M45A: lyso-PAF-PLD mutant, A substituted for M in the 45th position of SEQ ID NO: 9 (protein)
chain: B1 chain with M45A
B3 showed a Km [8] of 12 µM and a kcat [8] of 136 s⁻¹.

B4: M45L: lyso-PAF-PLD mutant, L substituted for M in the 45th position of SEQ ID NO: 9 (protein)
chain: B1 chain with M45L
With B4 the Km [8] was 23 µM and the kcat [8] was 147 s⁻¹.
